Results from patent US9522184B2, “CD89 activation in therapy” (CSL BEHRING AG, priority 2010, dated 2016).

Experiments:
[1] = test system: neutrophils; test: Pan-caspase inhibition of IgA-mediated neutrophil cell death; format: cell-based, human; conditions: qVD-OPh 20 μM, 24 hours, in the presence and absence of LPS and GM-CSF; FIG. 6
Excerpt: (§1) Antibodies: Anti-CD89 (Clone A59) (both unlabeled and phycoerythrin [PE]-conjugated), and PE-conjugated immunoglobulin G1 (IgG1) isotype control were from BD Biosciences (Basel, Switzerland). Goat anti-mouse IgG (GaM) and unlabelled control IgG1 were obtained from Jackson ImmunoResearch Laboratories (distributed by Milan Analytica, La Roche, Switzerland). Anti-Fas agonistic mAb (CH11) was obtained from LabForce AG (Nunningen, Switzerland). Pooled serum IgA was obtained from CSL Behring AG (Wankdorf, Bern), and was prepared as follows: IgA was purified from human plasma and side-fraction of the IVIg/SCIg manufacturing process by affinity chromatography using CaptureSelect Human IgA resin from BAC (Naarden, Netherlands). […] Cell purity was assessed by staining with Diff-Quik (Baxter, Düdingen, Switzerland) and light microscopy analysis. […] Immunofluorescence: CD89 surface expression was analyzed by flow cytometry following incubation of the cells with saturating concentrations of PE-conjugated anti-CD89 and isotype-matched PE-conjugated control mAbs. […] The caspase inhibitor qVD-OPh (quinoline-Val-Asp-difluorophenoxymethylketone) was used at […] Determination of Cell Death and Apoptosis: Cell death was assessed by uptake of 1 μM ethidium bromide and flow cytometric analysis (FACSCalibur, Becton Dickinson). […]

[2] = test system: human neutrophils; test: CD89 surface expression on neutrophils by flow cytometry after inflammatory stimulus; format: cell-based
Excerpt: as §1

Compound: CC(C)[C@H](NC(=O)c1ccc2ccccc2n1)C(=O)N[C@@H](CC(=O)O)C(=O)COc1c(F)cccc1F [qVD-OPh, quinoline-Val-Asp-difluorophenoxymethylketone]
- effect on plasma IgA-mediated neutrophil cell death [1]: blocked

Compound: GM-CSF: Cytokine (Novartis Pharma) used as inflammatory stimulus
- CD89 expression on neutrophils ([2]; 8 hours, 100 ng/ml LPS or 10 ng/ml GM-CSF, blood neutrophils of healthy volunteers, FIG. 1A): CD89 expression was increased
- time to significant upregulation of CD89 expression ([2]; time course, FIG. 1B): 4 h
